Legend:
VEGF-A = assay: Gene expression analysis of VEGF-A; assay type: in vivo, human; conditions: week 4, groups 1-2 and 4, p<0.05
Experimental: (§1) A double-blind randomized placebo-controlled trial was conducted using a temporal punch-biopsy model. The punch biopsy and topical application methodology used in the study is illustrated in FIG. 1, namely showing pre-injury pre-emptive priming (7-days), pre-injury pre-emptive priming (3-days), day of injury (immediate application on day 0), post-injury (delayed 2 weeks post injury) including biopsy time points and time of topical applications. Each group applied both placebo and topical formulations twice daily for the duration of the study until week 8, with only the starting time point differing between groups Participants were split into 4 groups (n=10 in each group) in order to compare different modes (timings) of commencement of the topical application: • Group-1: Pre-emptive Priming (7-days): pre-injury • Group-2: Pre-emptive Priming (3-days): pre-injury • Group-3: Immediate (0-day): day-of-injury • Group-4: Delayed (14-days): post-injury Clinical quantitative devices were used to objectively monitor cutaneous healing at weekly intervals and punch biopsies were performed on day 0 (uninjured skin) and at weeks 4 and 8 for protein and gene expression analyses. […] Excisional skin biopsies in upper arms were evaluated weekly with multiple quantitative devices over an 8-week period. […]

zone of injury = conditions: topical EGCG, zonal priming; cited from earlier work
[1] = tested on: Nuclear factor erythroid 2-related factor 2 (NRF2); assay: NRF2 immunohistochemical marker (anti-oxidant effect); assay type: in vivo, human; conditions: scar samples, weeks 4 and 8
Experimental: as §1

mast cells (MC) = assay: Mast cell identification by MCT, MCC and CKit immunohistochemical markers in scar biopsies (double-blind placebo-controlled punch-biopsy trial); assay type: in vivo, human
Experimental: A double-blind randomized placebo-controlled trial was conducted using a temporal punch-biopsy model. The punch biopsy and topical application methodology used in the study is illustrated in FIG. 1, namely showing pre-injury pre-emptive priming (7-days), pre-injury pre-emptive priming (3-days), day of injury (immediate application on day 0), post-injury (delayed 2 weeks post injury) including biopsy time points and time of topical applications. Each group applied both placebo and topical formulations twice daily for the duration of the study until week 8, with only the starting time point differing between groups Participants were split into 4 groups (n=10 in each group) in order to compare different modes (timings) of commencement of the topical application: • Group-1: Pre-emptive Priming (7-days): pre-injury • Group-2: Pre-emptive Priming (3-days): pre-injury • Group-3: Immediate (0-day): day-of-injury • Group-4: Delayed (14-days): post-injury Clinical quantitative devices were used to objectively monitor cutaneous healing at weekly intervals and punch biopsies were performed on day 0 (uninjured skin) and at weeks 4 and 8 for protein and gene expression analyses. In the trial, topical EGCG and a placebo topical were applied twice daily for the duration of the trial until week 8 with only the starting time points differing between groups. Clinical and experimental analysis involved use of non-invasive devices as well as protein and gene studies. Excisional skin biopsies in upper arms were evaluated weekly with multiple quantitative devices over an 8-week period. Immunohistochemical analyses, mRNA sequencing and QRT-PCR were performed on tissue biopsies. MC identification was performed using mast cell tryptase (MCT), mast cell chymase (MCC) and CKit markers. […] The percentage differences between the change in placebo and EGCG for group-1 compared to group-2 was 58% (p=0.002), group-3 was 53% (p=0.003) and group-4 was 52% (p=0.005). […] The greatest difference was in group-1 compared to group-3 by 26% (p=0.02) and group-4 by 27% (p=0.02). Subsequent QRT-PCR analysis further confirmed down-regulation of MCT and MCC (p<0.05) in EGCG-treated samples at week-4 in all groups. MCT, MCC and CKit quantitative measurements are expressed in mm^2.

[2] = weeks 4 and 8, all groups, p<0.01, topical twice daily

In the case of `O=C(OC1Cc2c(O)cc(O)cc2OC1c1cc(O)c(O)c(O)c1)c1cc(O)c(O)c(O)c1` (single isomer, unassigned; (-)) [EGCG, (-)-epigallocatechin-3-gallate], the “VEGF-A gene expression, EGCG-treated samples compared to placebo” value (VEGF-A) is given as “significant reductions”, the “Scar outcome, immediate application to zone of injury compared with delayed application two-weeks post-wounding” value (zone of injury) is given as “reduced scar thickness and angiogenesis, plus increased hydration and elasticity” and the “NRF2 amounts, EGCG samples compared to placebo” value [1] is given as “slightly higher amounts of NRF2 compared to placebo samples, although not significantly”. The “Resident mast cell population in primed uninjured skin” value (mast cells (MC); primed uninjured skin prior to injury) was “reduces the resident mast cell population”, the “MCC: larger difference of group-2 than group-4” value (mast cells (MC); week 4, 3-day priming vs delayed, p=0.009) was 29% and the “MCT: percentage difference between the change in placebo and EGCG, group-1 compared to group-2” value (mast cells (MC); week 4, 7-day pre-injury priming vs 3-day priming, p=0.002) was 58%. The “MCT: percentage difference between the change in placebo and EGCG, group-1 compared to group-4” value (mast cells (MC); week 4, 7-day pre-injury priming vs delayed (14 days), p=0.005) was 52%, the “MCT: percentage difference between the change in placebo and EGCG, group-1 compared to group-3” value (mast cells (MC); week 4, 7-day pre-injury priming vs immediate (day 0), p=0.003) was 53% and the “MCC: greater difference of group-1 than group-4” value (mast cells (MC); week 4, 7-day priming vs delayed, p=0.001) was 41%. The “CKit: difference of group-1 compared to group-4” value (mast cells (MC); week 4, 7-day priming vs delayed, p=0.02) was 27%, the “MCC: greater difference of group-1 than group-3” value (mast cells (MC); week 4, 7-day priming vs immediate, p=0.01) was 29% and the “CKit: difference of group-1 compared to group-3” value (mast cells (MC); week 4, 7-day priming vs immediate, p=0.02) was 26%. For the same compound, the “CKit positive cells, EGCG-treated scars compared to placebo-treated scars” value (mast cells (MC); [2]) was “significantly fewer positive cells”, the “MCC positive cells, EGCG-treated scars compared to placebo-treated scars” value (mast cells (MC); [2]) was “significantly fewer positive cells” and the “MCT positive cells, EGCG-treated scars compared to placebo-treated scars” value (mast cells (MC); [2]) was “significantly fewer positive cells”.

Source: patent US12691092B2, “Method for reducing cutaneous skin scarring by pre-emptive priming and compounds and compositions for its implementation” (SOS SCIENCE OF SKIN LTD, priority 2020, dated 2026)
